Laboratory results reported in ChEMBL document CHEMBL3098003, “Structure-based design of 2-aminopyridine oxazolidinones as potent and selective tankyrase inhibitors” (ACS Med Chem Lett, 2013).
Calls of active or inactive are those of the source. The rule behind the calls is not given here.

Key:
[1] = target: Poly [ADP-ribose] polymerase 2 (Homo sapiens, UniProt Q9UGN5); assay: Inhibition of PARP2 (unknown origin)
[2] = target: Tyrosine-protein kinase JAK2 (Homo sapiens) (UniProt O60674); assay: Inhibition of JAK2 (unknown origin) at 1 uM after 1 hr
[3] = target: Mitogen-activated protein kinase kinase kinase kinase 4 (Homo sapiens) (UniProt O95819); assay: Inhibition of MAP4K4 (unknown origin) at 1 uM after 1 hr
[4] = target: Tyrosine-protein kinase ABL1 (Homo sapiens) (UniProt P00519); assay: Inhibition of ABL1 (unknown origin) at 1 uM after 1 hr
[5] = target: Poly [ADP-ribose] polymerase 1 (Homo sapiens, UniProt P09874); assay: Inhibition of PARP1 (unknown origin)
[6] = target: Proto-oncogene tyrosine-protein kinase Src (Homo sapiens) (UniProt P12931); assay: Inhibition of SRC (unknown origin) at 1 uM after 1 hr
[7] = target: Interleukin-1 receptor-associated kinase 4 (Homo sapiens) (UniProt Q9NWZ3); assay: Inhibition of IRAK4 (unknown origin) at 1 uM after 1 hr
[8] = target: Ribosomal protein S6 kinase alpha-1 (Homo sapiens) (UniProt Q15418); assay: Inhibition of RPS6KA1 (unknown origin) at 1 uM after 1 hr
Sequence of Ribosomal protein S6 kinase alpha-1 (Homo sapiens) (Q15418 whole entry): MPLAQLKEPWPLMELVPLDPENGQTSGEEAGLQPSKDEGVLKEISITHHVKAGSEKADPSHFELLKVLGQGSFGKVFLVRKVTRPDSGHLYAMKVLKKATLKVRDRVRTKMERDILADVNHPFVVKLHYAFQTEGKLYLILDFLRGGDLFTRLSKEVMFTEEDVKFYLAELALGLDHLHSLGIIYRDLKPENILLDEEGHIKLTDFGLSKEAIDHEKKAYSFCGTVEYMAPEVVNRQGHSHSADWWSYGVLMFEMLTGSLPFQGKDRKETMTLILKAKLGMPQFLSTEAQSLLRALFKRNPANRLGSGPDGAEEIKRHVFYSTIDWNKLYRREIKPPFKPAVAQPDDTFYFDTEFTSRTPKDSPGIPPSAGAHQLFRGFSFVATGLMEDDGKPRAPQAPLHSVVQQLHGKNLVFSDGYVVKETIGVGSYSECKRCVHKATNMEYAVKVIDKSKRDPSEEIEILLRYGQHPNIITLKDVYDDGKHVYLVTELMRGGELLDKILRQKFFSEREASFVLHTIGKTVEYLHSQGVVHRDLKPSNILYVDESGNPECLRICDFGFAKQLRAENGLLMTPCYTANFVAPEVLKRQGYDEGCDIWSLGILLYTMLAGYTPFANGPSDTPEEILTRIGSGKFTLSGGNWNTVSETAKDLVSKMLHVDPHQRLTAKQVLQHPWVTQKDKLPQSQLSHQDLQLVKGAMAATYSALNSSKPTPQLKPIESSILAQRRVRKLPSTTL

[9] = target: Serine/threonine-protein kinase PLK4 (Homo sapiens) (UniProt O00444); assay: Inhibition of PLK4 (unknown origin) at 1 uM after 1 hr
[10] = target: Homeodomain-interacting protein kinase 1 (Homo sapiens) (UniProt Q86Z02); assay: Inhibition of HIPK1 (unknown origin) at 1 uM after 1 hr
[11] = target: Epithelial discoidin domain-containing receptor 1 (Homo sapiens) (UniProt Q08345); assay: Inhibition of DDR1 (unknown origin) at 1 uM after 1 hr relative to control
Sequence of Epithelial discoidin domain-containing receptor 1 (Homo sapiens) (Q08345 whole entry, the tested form may be a part): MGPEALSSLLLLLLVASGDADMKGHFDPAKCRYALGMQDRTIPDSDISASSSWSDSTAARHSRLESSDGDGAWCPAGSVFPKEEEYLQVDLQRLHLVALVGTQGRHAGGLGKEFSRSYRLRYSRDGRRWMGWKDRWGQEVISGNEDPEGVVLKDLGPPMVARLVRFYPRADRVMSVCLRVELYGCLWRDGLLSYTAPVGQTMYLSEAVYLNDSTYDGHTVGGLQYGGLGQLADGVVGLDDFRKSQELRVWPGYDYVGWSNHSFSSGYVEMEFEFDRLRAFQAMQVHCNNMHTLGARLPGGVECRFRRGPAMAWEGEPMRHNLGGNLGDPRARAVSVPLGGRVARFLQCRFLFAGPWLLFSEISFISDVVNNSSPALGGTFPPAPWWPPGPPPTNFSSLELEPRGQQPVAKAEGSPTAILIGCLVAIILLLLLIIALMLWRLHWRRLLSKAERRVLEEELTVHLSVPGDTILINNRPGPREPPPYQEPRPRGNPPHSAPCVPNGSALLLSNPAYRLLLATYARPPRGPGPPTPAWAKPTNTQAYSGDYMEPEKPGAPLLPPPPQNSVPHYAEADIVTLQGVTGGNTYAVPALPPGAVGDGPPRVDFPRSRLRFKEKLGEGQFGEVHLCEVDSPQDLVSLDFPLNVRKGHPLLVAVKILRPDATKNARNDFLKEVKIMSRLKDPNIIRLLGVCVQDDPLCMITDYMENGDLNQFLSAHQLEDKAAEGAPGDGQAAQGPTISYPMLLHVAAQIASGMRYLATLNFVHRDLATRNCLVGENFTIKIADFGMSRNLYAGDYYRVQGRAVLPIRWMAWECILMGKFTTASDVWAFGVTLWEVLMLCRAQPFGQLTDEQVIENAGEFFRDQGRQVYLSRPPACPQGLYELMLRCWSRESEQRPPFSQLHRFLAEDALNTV

[12] = target: Calcium/calmodulin-dependent protein kinase type II subunit delta (Homo sapiens) (UniProt Q13557); assay: Inhibition of CAMK2D (unknown origin) at 1 uM after 1 hr
Sequence of Calcium/calmodulin-dependent protein kinase type II subunit delta (Homo sapiens) (Q13557 whole entry): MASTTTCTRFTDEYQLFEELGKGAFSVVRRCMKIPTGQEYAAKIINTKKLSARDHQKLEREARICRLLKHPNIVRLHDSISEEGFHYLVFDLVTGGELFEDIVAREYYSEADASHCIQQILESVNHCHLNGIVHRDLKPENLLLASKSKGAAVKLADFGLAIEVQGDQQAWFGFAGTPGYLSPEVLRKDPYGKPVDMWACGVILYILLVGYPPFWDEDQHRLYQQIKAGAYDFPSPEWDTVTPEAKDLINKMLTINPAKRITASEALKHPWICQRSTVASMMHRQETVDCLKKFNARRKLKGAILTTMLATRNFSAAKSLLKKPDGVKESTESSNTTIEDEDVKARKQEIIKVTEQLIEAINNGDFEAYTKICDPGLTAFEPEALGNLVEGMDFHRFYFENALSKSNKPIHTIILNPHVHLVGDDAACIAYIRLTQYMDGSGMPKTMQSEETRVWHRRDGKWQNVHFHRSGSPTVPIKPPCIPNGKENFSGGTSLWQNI

[13] = Cmax in CD1 mouse at 30 mg/kg, po; assay type: ADME, organism-based; set-up: dose 30 mg/kg, route oral; settings: in vivo
[14] = target: Serine/threonine-protein kinase Nek4 (Homo sapiens) (UniProt P51957); assay: Inhibition of NEK4 (unknown origin) at 1 uM after 1 hr
Sequence of Serine/threonine-protein kinase Nek4 (Homo sapiens) (P51957 whole entry, looked up): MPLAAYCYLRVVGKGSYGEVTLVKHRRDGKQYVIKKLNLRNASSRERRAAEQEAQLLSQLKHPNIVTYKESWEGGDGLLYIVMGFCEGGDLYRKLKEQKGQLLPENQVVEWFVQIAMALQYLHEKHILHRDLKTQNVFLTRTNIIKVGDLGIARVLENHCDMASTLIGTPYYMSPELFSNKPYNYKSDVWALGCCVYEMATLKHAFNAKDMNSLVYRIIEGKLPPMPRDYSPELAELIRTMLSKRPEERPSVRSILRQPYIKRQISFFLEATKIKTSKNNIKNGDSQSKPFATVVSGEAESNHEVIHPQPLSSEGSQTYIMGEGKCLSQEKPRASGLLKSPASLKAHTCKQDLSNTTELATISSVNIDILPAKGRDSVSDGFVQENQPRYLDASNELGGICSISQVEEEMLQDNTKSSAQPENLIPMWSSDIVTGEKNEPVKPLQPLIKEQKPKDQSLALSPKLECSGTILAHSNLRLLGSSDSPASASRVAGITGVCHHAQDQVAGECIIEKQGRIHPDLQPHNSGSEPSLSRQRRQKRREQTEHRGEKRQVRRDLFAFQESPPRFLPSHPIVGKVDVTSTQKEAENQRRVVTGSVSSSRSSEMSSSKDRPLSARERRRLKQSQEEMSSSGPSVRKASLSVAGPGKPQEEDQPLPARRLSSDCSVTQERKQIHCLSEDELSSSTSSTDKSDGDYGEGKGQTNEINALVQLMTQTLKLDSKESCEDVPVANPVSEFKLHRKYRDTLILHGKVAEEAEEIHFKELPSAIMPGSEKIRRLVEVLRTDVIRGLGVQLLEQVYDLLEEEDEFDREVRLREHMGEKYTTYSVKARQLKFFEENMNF

[15] = target: Mitogen-activated protein kinase 14 (Homo sapiens) (UniProt Q16539); assay: Inhibition of MAPK14 (unknown origin) at 1 uM after 1 hr
Sequence of Mitogen-activated protein kinase 14 (Homo sapiens) (Q16539 whole entry): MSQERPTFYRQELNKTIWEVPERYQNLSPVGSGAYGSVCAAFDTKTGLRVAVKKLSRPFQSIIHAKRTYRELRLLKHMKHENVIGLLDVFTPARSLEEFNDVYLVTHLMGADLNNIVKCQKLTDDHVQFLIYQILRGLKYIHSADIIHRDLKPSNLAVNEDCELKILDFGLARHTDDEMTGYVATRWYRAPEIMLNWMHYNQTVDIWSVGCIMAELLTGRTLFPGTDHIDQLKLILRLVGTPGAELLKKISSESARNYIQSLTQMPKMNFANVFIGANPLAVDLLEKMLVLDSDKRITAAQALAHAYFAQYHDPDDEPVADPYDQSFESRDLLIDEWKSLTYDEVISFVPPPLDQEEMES

[16] = target: Dual specificity protein kinase CLK4 (Homo sapiens) (UniProt Q9HAZ1); assay: Inhibition of CLK4 (unknown origin) at 1 uM after 1 hr
[17] = Cmax in Sprague-Dawley rat at 2 mg/kg, po; assay type: ADME, organism-based; set-up: dose 2 mg/kg, route oral; settings: in vivo
[18] = Oral bioavailability in Sprague-Dawley rat at 2 mg/kg; assay type: ADME, organism-based; settings: in vivo
[19] = target: MAP kinase-interacting serine/threonine-protein kinase 1 (Homo sapiens) (UniProt Q9BUB5); assay: Inhibition of MKNK1 (unknown origin) at 1 uM after 1 hr
[20] = target: Interferon-induced, double-stranded RNA-activated protein kinase (Homo sapiens) (UniProt P19525); assay: Inhibition of EIF2AK2 (unknown origin) at 1 uM after 1 hr
[21] = target: Casein kinase I isoform delta (Homo sapiens) (UniProt P48730); assay: Inhibition of CSNK1D (unknown origin) at 1 uM after 1 hr
Sequence of Casein kinase I isoform delta (Homo sapiens) (P48730 whole entry, looked up, canonical isoform): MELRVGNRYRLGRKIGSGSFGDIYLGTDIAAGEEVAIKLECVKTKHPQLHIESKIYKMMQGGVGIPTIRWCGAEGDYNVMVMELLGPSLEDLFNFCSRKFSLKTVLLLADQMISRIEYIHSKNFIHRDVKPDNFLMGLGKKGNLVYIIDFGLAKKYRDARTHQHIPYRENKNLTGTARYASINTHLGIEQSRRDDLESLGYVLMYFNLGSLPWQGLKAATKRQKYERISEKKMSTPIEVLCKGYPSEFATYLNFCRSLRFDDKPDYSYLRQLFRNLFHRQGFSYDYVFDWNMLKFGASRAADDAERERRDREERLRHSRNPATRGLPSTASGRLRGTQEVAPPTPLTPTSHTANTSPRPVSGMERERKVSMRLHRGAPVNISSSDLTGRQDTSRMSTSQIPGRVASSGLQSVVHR

[22] = tested on: Salmonella typhimurium; assay: Genotoxicity in Salmonella typhimurium by microAmes assay in presence of S9 fraction; assay type: toxicity, organism-based; settings: salmonella enterica subsp. enterica serovar typhimurium
[23] = Volume of distribution at steady state in Sprague-Dawley rat at 0.5 mg/kg, iv; assay type: ADME, organism-based; set-up: dose 0.5 mg/kg, route intravenous; settings: in vivo, read-out: Vdss
[24] = AUC in CD1 mouse at 30 mg/kg, po; assay type: ADME, organism-based; set-up: dose 30 mg/kg, route oral; settings: plasma
[25] = target: Tyrosine-protein kinase Lck (Homo sapiens) (UniProt P06239); assay: Inhibition of LCK (unknown origin) at 1 uM after 1 hr
[26] = AUC in Sprague-Dawley rat at 2 mg/kg, po; assay type: ADME, organism-based; set-up: dose 2 mg/kg, route oral; settings: plasma
[27] = target: High affinity nerve growth factor receptor (Homo sapiens) (UniProt P04629); assay: Inhibition of NTRK1 (unknown origin) at 1 uM after 1 hr
Sequence of High affinity nerve growth factor receptor (Homo sapiens) (P04629 33-796 limits assumed): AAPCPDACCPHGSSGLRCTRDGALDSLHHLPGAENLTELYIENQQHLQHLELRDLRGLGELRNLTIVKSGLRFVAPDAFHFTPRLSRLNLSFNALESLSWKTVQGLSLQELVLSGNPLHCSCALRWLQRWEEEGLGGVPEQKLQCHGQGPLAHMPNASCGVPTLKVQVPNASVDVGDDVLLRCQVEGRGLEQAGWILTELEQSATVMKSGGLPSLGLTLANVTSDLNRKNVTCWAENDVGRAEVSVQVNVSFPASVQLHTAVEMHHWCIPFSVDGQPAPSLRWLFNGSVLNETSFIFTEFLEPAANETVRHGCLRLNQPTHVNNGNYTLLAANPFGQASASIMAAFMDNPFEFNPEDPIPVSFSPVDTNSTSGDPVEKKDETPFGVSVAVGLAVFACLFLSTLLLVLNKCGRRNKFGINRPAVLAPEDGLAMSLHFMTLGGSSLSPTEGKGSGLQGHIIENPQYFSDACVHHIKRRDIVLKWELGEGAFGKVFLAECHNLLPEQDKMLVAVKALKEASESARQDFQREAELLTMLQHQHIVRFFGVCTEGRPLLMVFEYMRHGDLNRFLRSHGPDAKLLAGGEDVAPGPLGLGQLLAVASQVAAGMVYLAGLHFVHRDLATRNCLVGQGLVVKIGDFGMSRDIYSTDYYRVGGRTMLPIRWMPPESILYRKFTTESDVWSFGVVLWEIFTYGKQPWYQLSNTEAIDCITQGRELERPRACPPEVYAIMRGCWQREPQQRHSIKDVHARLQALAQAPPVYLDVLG

[28] = target: Phosphatidylinositol 4,5-bisphosphate 3-kinase catalytic subunit delta isoform (Homo sapiens) (UniProt O00329); assay: Inhibition of PIK3CD (unknown origin) at 1 uM after 1 hr
[29] = target: Wee1-like protein kinase (Homo sapiens) (UniProt P30291); assay: Inhibition of WEE1 (unknown origin) at 1 uM after 1 hr
[30] = tested on: Salmonella typhimurium; assay: Genotoxicity in Salmonella typhimurium by microAmes assay; assay type: toxicity, organism-based; settings: salmonella enterica subsp. enterica serovar typhimurium
[31] = Half life in CD1 mouse at 30 mg/kg, po; assay type: ADME, organism-based; set-up: dose 30 mg/kg, route oral; settings: in vivo
[32] = target: cAMP-dependent protein kinase catalytic subunit alpha (Homo sapiens) (UniProt P17612); assay: Inhibition of PRKACA (unknown origin) at 1 uM after 1 hr
[33] = Clearance in Sprague-Dawley rat at 0.5 mg/kg, iv; assay type: ADME, organism-based; set-up: dose 0.5 mg/kg, route intravenous; settings: in vivo
[34] = target: Non-receptor tyrosine-protein kinase TYK2 (Homo sapiens) (UniProt P29597); assay: Inhibition of TYK2 (unknown origin) at 1 uM after 1 hr
[35] = target: Ephrin type-B receptor 3 (Homo sapiens) (UniProt P54753); assay: Inhibition of EPHB3 (unknown origin) at 1 uM after 1 hr
[36] = target: Tyrosine-protein kinase Fyn (Homo sapiens) (UniProt P06241); assay: Inhibition of FYN (unknown origin) at 1 uM after 1 hr
[37] = target: Death-associated protein kinase 1 (Homo sapiens) (UniProt P53355); assay: Inhibition of DAPK1 (unknown origin) at 1 uM after 1 hr
[38] = target: Mitogen-activated protein kinase kinase kinase 9 (Homo sapiens) (UniProt P80192); assay: Inhibition of MAP3K9 (unknown origin) at 1 uM after 1 hr
[39] = target: Mitogen-activated protein kinase kinase kinase 1 (Homo sapiens) (UniProt Q13233); assay: Inhibition of MAP3K1 (unknown origin) at 1 uM after 1 hr
[40] = target: TGF-beta receptor type-2 (Homo sapiens) (UniProt P37173); assay: Inhibition of TGFBR2 (unknown origin) at 1 uM after 1 hr
[41] = target: Rho-associated protein kinase 2 (Homo sapiens) (UniProt O75116); assay: Inhibition of ROCK2 (unknown origin) at 1 uM after 1 hr
[42] = Elimination half life in Sprague-Dawley rat at 0.5 mg/kg, iv; assay type: ADME, organism-based; set-up: dose 0.5 mg/kg, route intravenous; settings: in vivo, read-out: beta t1/2 (converted)
[43] = target: Cyclin-dependent kinase 2 (Homo sapiens) (UniProt P24941); assay: Inhibition of CDK2 (unknown origin) at 1 uM after 1 hr
[44] = target: Serine/threonine-protein kinase D2 (Homo sapiens) (UniProt Q9BZL6); assay: Inhibition of PRKD2 (unknown origin) at 1 uM after 1 hr
[45] = target: Serine/threonine-protein kinase 3 (Homo sapiens) (UniProt Q13188); assay: Inhibition of STK3 (unknown origin) at 1 uM after 1 hr
Sequence of Serine/threonine-protein kinase 3 (Homo sapiens) (Q13188 whole entry): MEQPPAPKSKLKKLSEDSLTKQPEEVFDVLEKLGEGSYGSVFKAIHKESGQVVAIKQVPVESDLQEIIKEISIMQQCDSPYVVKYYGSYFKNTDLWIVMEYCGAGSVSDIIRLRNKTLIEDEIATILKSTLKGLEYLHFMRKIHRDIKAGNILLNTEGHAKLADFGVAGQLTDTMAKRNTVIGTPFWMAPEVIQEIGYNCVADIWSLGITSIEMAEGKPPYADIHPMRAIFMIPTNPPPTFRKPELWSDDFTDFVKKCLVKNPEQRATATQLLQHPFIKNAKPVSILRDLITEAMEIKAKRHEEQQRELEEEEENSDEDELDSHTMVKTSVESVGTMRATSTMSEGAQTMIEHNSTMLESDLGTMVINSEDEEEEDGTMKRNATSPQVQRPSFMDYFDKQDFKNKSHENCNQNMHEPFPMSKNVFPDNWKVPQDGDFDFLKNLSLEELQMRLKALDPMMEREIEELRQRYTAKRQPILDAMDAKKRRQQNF

Structure (SMILES): CC1(C)OC(=O)N(c2ccc(-c3cnc(N)c(-c4ncccn4)c3)cc2)[C@H]1c1ccccc1
- IC50 [1]: > 170 µM
- inhibition [2]: inactive
- inhibition [3]: inactive
- inhibition [4]: inactive
- IC50 [5]: > 85 µM
- inhibition [6]: inactive
- inhibition [7]: inactive
- inhibition [8]: inactive
- inhibition [9]: inactive
- inhibition [10]: inactive
- inhibition [11]: inactive
- inhibition [12]: inactive
- Cmax [13]: 7.88 µM
- inhibition [14]: inactive
- inhibition [15]: inactive
- inhibition [16]: inactive
- Cmax [17]: 0.37 µM
- bioavailability [18]: 29%
- inhibition [19]: inactive
- inhibition [20]: inactive
- inhibition [21]: inactive
- Activity [22]: Toxic
- Vd [23]: 2.32 L/kg
- AUC [24]: 63.3 µM·h
- inhibition [25]: inactive
- AUC [26]: 2.71 µM·h
- inhibition [27]: inactive
- inhibition [28]: inactive
- inhibition [29]: inactive
- Activity [30]: Toxic
- half-life [31]: 3.7 h
- inhibition [32]: inactive
- clearance [33]: 8.67 mL/min/kg
- inhibition [34]: inactive
- inhibition [35]: inactive
- inhibition [36]: inactive
- inhibition [37]: inactive
- inhibition [38]: inactive
- inhibition [39]: inactive
- inhibition [40]: inactive
- inhibition [41]: inactive
- half-life [42]: 4.3 h
- inhibition [43]: inactive
- inhibition [44]: inactive
- inhibition [45]: inactive

Structure (SMILES): CC1(C)OC(=O)N([C@H]2CC[C@H](c3cnc(N)c(-c4ncccn4)c3)CC2)[C@H]1c1ccccc1
- IC50 [1]: > 170 µM
- inhibition [2]: inactive
- inhibition [3]: inactive
- inhibition [4]: inactive
- IC50 [5]: > 85 µM
- inhibition [6]: inactive
- inhibition [7]: inactive
- inhibition [8]: inactive
- inhibition [9]: inactive
- inhibition [10]: inactive
- inhibition [11]: 18%
- inhibition [12]: inactive
- Cmax [13]: 6.09 µM
- inhibition [14]: inactive
- inhibition [15]: inactive
- inhibition [16]: inactive
- Cmax [17]: 0.45 µM
- bioavailability [18]: 33%
- inhibition [19]: inactive
- inhibition [20]: inactive
- inhibition [21]: inactive
- Activity [22]: Non-toxic
- Vd [23]: 2.85 L/kg
- AUC [24]: 36.3 µM·h
- inhibition [25]: inactive
- AUC [26]: 1.98 µM·h
- inhibition [27]: inactive
- inhibition [28]: inactive
- inhibition [29]: inactive
- Activity [30]: Non-toxic
- half-life [31]: 3.5 h
- inhibition [32]: inactive
- clearance [33]: 12.5 mL/min/kg
- inhibition [34]: inactive
- inhibition [35]: inactive
- inhibition [36]: inactive
- inhibition [37]: inactive
- inhibition [38]: inactive
- inhibition [39]: inactive
- inhibition [40]: inactive
- inhibition [41]: inactive
- half-life [42]: 3.6 h
- inhibition [43]: inactive
- inhibition [44]: inactive
- inhibition [45]: inactive
